Test results reported in patent US8604053B2, “TRPV1 antagonists” (AbbVie Inc., priority 2008, dated 2013).
pIC50: −log10 of the molar value.

Legend:
[1] = Assessment of hemodynamic profile in anesthetized rat; type: in vivo; settings: i.v. infusion 3, 10 and 30 mg/kg/30 minutes/dose, relative to vehicle control group
Protocol: Male Sprague-Dawley rats were anesthetized with Inactin, instrumented, and allowed to stabilize. Following a 30 minute baseline period, test compound was infused via intravenous administration at 3, 10, and 30 mg/kg/30 minutes/dose in a low volume PEG-400 vehicle (1 mL/kg) or 20:40:40 dimethylacetamide:propylene glycol:PEG-400 vehicle (1 mL/kg). A separate group of animals received infusion of vehicle alone. Mean arterial pressure (MAP) and heart rate (HR) were observed and recorded.

[2] = target: T1, human TRPV1 receptor (hTRPV1) (Homo sapiens, UniProt Q8NER1); assay: Capsaicin activation assay (Ca2+ influx, FLIPR); type: cell-based; settings: hTRPV1 in 1321N1 cells, 0.05 μM capsaicin
T1 construct: expressed in transfected cells
T1 sequence (Q8NER1 whole entry): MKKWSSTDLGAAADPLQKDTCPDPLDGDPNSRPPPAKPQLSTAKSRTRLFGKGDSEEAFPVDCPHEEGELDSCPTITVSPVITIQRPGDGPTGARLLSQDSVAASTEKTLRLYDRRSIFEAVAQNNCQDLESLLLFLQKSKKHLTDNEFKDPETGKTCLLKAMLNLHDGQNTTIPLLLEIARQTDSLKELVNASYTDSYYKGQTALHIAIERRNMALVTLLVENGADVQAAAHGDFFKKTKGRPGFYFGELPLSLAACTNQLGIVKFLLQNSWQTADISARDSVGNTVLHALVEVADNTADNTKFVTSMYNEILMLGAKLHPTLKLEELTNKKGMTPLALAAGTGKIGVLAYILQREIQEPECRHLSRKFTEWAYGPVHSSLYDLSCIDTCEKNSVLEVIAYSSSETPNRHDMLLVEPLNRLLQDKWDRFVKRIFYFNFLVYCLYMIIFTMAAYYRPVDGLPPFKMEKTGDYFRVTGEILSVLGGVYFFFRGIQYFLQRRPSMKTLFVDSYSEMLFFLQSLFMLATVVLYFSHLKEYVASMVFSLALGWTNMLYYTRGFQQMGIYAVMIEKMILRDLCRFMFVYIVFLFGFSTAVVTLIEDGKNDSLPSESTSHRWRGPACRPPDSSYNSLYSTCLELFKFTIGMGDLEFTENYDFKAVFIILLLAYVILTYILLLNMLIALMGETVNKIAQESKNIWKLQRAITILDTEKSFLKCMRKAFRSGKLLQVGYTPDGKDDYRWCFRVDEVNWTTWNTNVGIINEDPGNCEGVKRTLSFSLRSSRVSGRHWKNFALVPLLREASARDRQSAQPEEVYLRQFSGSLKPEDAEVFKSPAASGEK
Protocol: Dulbecco's modified Eagle medium (D-MEM) (with 4.5 mg/mL glucose) and fetal bovine serum were obtained from Hyclone Laboratories, Inc. (Logan, Utah). Dulbecco's phosphate-buffered saline (D-PBS) (with 1 mg/mL glucose and 3.6 mg/l Na pyruvate, without phenol red), L-glutamine, hygromycin B, and Lipofectamine® were obtained from Life Technologies (Grand Island, N.Y.). G418 sulfate was obtained from Calbiochem-Novabiochem Corp. (San Diego, Calif.). Capsaicin (8-methyl-N-vanillyl-6-nonenamide) was obtained from Sigma-Aldrich, Co. (St. Louis, Mo.). Fluo-4 AM (N-[4-[6-[(acetyloxy)methoxy]-2,7-difluoro-3-oxo-3H-xanthen-9-yl]-2-[2-[2-[bis[2-[(acetyloxy)methoxy]-2-oxyethyl]amino]-5-methyl-phenoxy[ethoxy]phenyl]-N-[2-[(acetyloxy)methoxy]-2-oxyethyl]-glycine, (acetyloxy)methyl ester) was purchased from Molecular Probes (Eugene, Oreg.).
The cDNAs for the human TRPV1 receptor (hTRPV1) were isolated by reverse transcriptase-polymerase chain reaction (RT-PCR) from human small intestine poly A+ RNA supplied by Clontech (Palo Alto, Calif.) using primers designed surrounding the initiation and termination codons identical to the published sequences (Hayes et al. Pain 2000, 88, 205-215). The resulting cDNA PCR products were subcloned into pClneo mammalian expression vector (Promega) and fully sequenced using fluorescent dye-terminator reagents (Prism, Perkin-Elmer Applied Biosystems Division) and a Perkin-Elmer Applied Biosystems Model 373 DNA sequencer or Model 310 genetic analyzer. Expression plasmids encoding the hTRPV1 cDNA were transfected individually into 1321N1 human astrocytoma cells using Lipofectamine®. Forty-eight hours after transfection, the neomycin-resistant cells were selected with growth medium containing 800 μg/mL Geneticin (Gibco BRL). Surviving individual colonies were isolated and screened for TRPV1 receptor activity. Cells expressing recombinant homomeric TRPV1 receptors were maintained at 37° C. in D-MEM containing 4 mM L-glutamine, 300 μg/mL G418 (Cal-biochem) and 10% fetal bovine serum under a humidified 5% CO2 atmosphere.
The functional activity of compounds at the TRPV1 receptor was determined with a Ca^2+ influx assay and measurement of intracellular Ca^2+ levels ([Ca^2+]i). All compounds were tested over an 11-point half-log concentration range. Compound solutions were prepared in D-PBS (4× final concentration), and diluted serially across 96-well v-bottom tissue culture plates using a Biomek 2000 robotic automation workstation (Beckman-Coulter, Inc., Fullerton, Calif.). A 0.2 μM solution of the TRPV1 agonist capsaicin was also prepared in D-PBS. The fluorescent Ca^2+ chelating dye Fluo-4 AM was used as an indicator of the relative levels of [Ca^2+]i in a 96-well format using a Fluorescence Imaging Plate Reader (FLIPR)(Molecular Devices, Sunnyvale, Calif.). Cells were grown to confluency in 96-well black-walled tissue culture plates. Then, prior to the assay, the cells were loaded with 100 μL per well of Fluo-4 AM (2 μM, in D-PBS) for 1-2 hours at 23° C. Washing of the cells was performed to remove extracellular Fluo-4 AM (2×1 mL D-PBS per well), and afterward, the cells were placed in the reading chamber of the FLIPR instrument. 50 μL of the compound solutions were added to the cells at the 10 second time mark of the experimental run. Then, after a 3-minute time delay, 50 μL of the capsaicin solution was added at the, 190 second time mark (0.05 μM final concentration)(final volume=200 μL) to challenge the TRPV1 receptor. Time length of the experimental run was 240 seconds. Fluorescence readings were made at 1 to 5 second intervals over the course of the experimental run. The peak increase in relative fluorescence units (minus baseline) was calculated from the 190 second time mark to the end of the experimental run, and expressed as a percentage of the 0.05 μM capsaicin (control) response. […]

[3] = Rat telemetry protocol, core body temperature; type: in vivo; settings: core body temperature of rats one hour post dosing, 100 μmol/kg p.o., relative to vehicle
Protocol: Male, Sprague Dawley rats, 225-250 grams were anesthetized with Sevoflurane (Abbott Laboratories). Rats were placed on a heating pad and covered with a sterile surgical drape. A ventral midline abdominal incision was made and sterile cotton tip applicators were used to gently move internal tissue and expose the abdominal aorta for implantation of the telemetry catheter (Data Sciences International; TL11M2-050-PXT). Blood flow was temporarily stopped to the lower extremities (5-7 min) with Diffenbach clamps to allow the insertion of the telemetry catheter into the abdominal aorta. Once inserted, a sterile cellulose patch was placed over the catheter/aorta and secured using a small amount of tissue adhesive (Vetbond, 3M). Once catheter placement was complete, the clamps were removed and blood flow was restored to the lower extremities. Thetransmitter was placed in the intraperitoneal cavity. The transmitter suture rib was sewn into the abdominal sutures to secure it in place. The skin was closed using sterile wound clips and the animal removed from Sevoflurane. Buprenex ([…] s.c.; Phoenix) was administered for post-operative analgesia. Animals were maintained on a heating pad until ambulatory, and then individually housed with food and water ad lib. Surgical staples were removed after 7-10 days post-implantation. Rats were allowed a 2-week post-surgical recovery period before treatment with test compound. Oral dosing (p.o.) was at time zero, with rats receiving a single dose of vehicle (10% EtOH, 20% Tween-80, 70% PEG-400) or a 100 μmol/kg dose of compound dissolved in vehicle. Temperature measurements were recorded every 15 minutes for the duration of the study (24 hours).
Representative compounds described herein have the novel property of having limited transient temperature effect on core body temperature of a mammal (e.g. rats). For example, compounds tested alter core body temperature of rats by less than about +0.5° C. at about 1 hour after administration of a single dose (100 μmol/kg) of the test compounds orally, for example, in the range from about −2.5° C. to less than about +0.5° C., from about −0.5° C. to less than about +0.5° C.; or from about −0.3° C. to about +0.3° C.
The term “core body temperature” as used herein, means the temperature measured in the intraperitoneal cavity.

Molecule | Change in MAP or HR ≧ 15% ? [1] | pIC50 [2] | Δ Temp (° C.) [3] [°C]
Cc1cc2c(NC(=O)N[C@@H]3C[C@](C)(CF)Oc4cc(Cl)ccc43)cccc2cn1 (single isomer, unassigned) [Example 121] | Yes (An observed increase or decrease of greater than 15% in MAP (mean arterial pressure) or HR (heart rate) in one or more of the animals in the test group relative to the vehicle control group is indicated as “Yes” in the table) | 8.05 | 0.0
Cc1cc2c(NC(=O)N[C@@H]3C[C@@](C)(CF)Oc4cc(Cl)ccc43)cccc2cn1 (single isomer, unassigned) [Example 122] | No (an observed increase or decrease of less than or equal to 15% in MAP (mean arterial pressure) or HR (heart rate) in the test group of animals relative to the vehicle control group is indicated as “No” in the table) | 7.52 | 0.0
CC1(C)C[C@@H](NC(=O)Nc2cccc3cnccc23)c2ccc(F)cc2O1 [Example 23, N-[(4R)-7-fluoro-2,2-dimethyl-3,4-dihydro-2H-chromen-4-yl]-N′-isoquinolin-5-ylurea] | – | 8.22 | −0.7
CC1(C)C[C@@H](NC(=O)Nc2cccc3cnccc23)c2ccccc2O1 [Example 27, N-[(4R)-2,2-dimethyl-3,4-dihydro-2H-chromen-4-yl]-N′-isoquinolin-5-ylurea] | – | 7.49 | −1.0
CC1(C)C[C@@H](NC(=O)Nc2cccc3cnccc23)c2ccc(C(F)(F)F)cc2O1 [Example 34, N-[(4R)-2,2-dimethyl-7-(trifluoromethyl)-3,4-dihydro-2H-chromen-4-yl]-N′-isoquinolin-5-ylurea] | – | 8.30 | −1.6
CCCC1(CCC)C[C@@H](NC(=O)Nc2cccc3cnc(C)cc23)c2cccc(F)c2O1 [Example 68, N-[(4R)-8-fluoro-2,2-dipropyl-3,4-dihydro-2H-chromen-4-yl]-N′-(3-methylisoquinolin-5-yl)urea] | – | 7.80 | 0.1
CCC1(CC)C[C@@H](NC(=O)Nc2cccc3cnc(C)cc23)c2ccc(Cl)cc2O1 [Example 69, N-[(4R)-7-chloro-2,2-diethyl-3,4-dihydro-2H-chromen-4-yl]-N′-(3-methylisoquinolin-5-yl)urea] | – | 8.40 | 0.1
CCC1(CC)C[C@@H](NC(=O)Nc2cccc3cnc(Cl)cc23)c2cccc(F)c2O1 [Example 81, N-(3-chloroisoquinolin-5-yl)-N′-[(4R)-2,2-diethyl-8-fluoro-3,4-dihydro-2H-chromen-4-yl]urea] | – | 8.30 | −0.5
Cc1cc2c(NC(=O)N[C@@H]3CC(CF)(CF)Oc4c(OC(F)(F)F)cccc43)cccc2cn1 [Example 87, N-[(4R)-2,2-bis(fluoromethyl)-8-(trifluoromethoxy)-3,4-dihydro-2H-chromen-4-yl]-N′-(3-methylisoquinolin-5-yl)urea] | – | 8.00 | −2.0
Cc1cc2c(NC(=O)N[C@@H]3CC(CF)(CF)Oc4c(Cl)cccc43)cccc2cn1 [Example 91, N-[(4R)-8-chloro-2,2-bis(fluoromethyl)-3,4-dihydro-2H-chromen-4-yl]-N′-(3-methylisoquinolin-5-yl)urea] | – | 7.59 | −0.1
Cc1cc2c(NC(=O)N[C@@H]3CC(C)(C)Oc4c(OC(F)(F)F)cccc43)cccc2cn1 [Example 94, N-[(4R)-2,2-dimethyl-8-(trifluoromethoxy)-3,4-dihydro-2H-chromen-4-yl]-N′-(3-methylisoquinolin-5-yl)urea] | – | 8.05 | −2.0
Cc1cc2c(NC(=O)N[C@@H]3CC(CF)(CF)Oc4cc(Br)ccc43)cccc2cn1 [Example 102, N-[(4R)-7-bromo-2,2-bis(fluoromethyl)-3,4-dihydro-2H-chromen-4-yl]-N′-(3-methylisoquinolin-5-yl)urea] | – | 7.85 | −0.7
Cc1cc2c(NC(=O)N[C@@H]3C[C@](C)(CF)Oc4c(F)cccc43)cccc2cn1 [Example 126, N-[(2R,4R)-8-fluoro-2-(fluoromethyl)-2-methyl-3,4-dihydro-2H-chromen-4-yl]-N′-(3-methylisoquinolin-5-yl)urea] | – | 6.70 | 0.0
Cc1cc2c(NC(=O)N[C@@H]3C[C@@](C)(CF)Oc4c(F)cccc43)cccc2cn1 [Example 128, N-[(2S,4R)-8-fluoro-2-(fluoromethyl)-2-methyl-3,4-dihydro-2H-chromen-4-yl]-N′-(3-methylisoquinolin-5-yl)urea] | – | 6.52 | −0.1
N-[(4R)-6,8-difluoro-2,2-dimethyl-3,4-dihydro-2H-chromen-4-yl]-N′-isoquinolin-5-ylurea [Example 17] | – | 7.49 | −1.5
N-[(4R)-7-fluoro-2,2,8-trimethyl-3,4-dihydro-2H-chromen-4-yl]-N-(3-methylisoquinolin-5-yl)urea [Example 111] | – | 7.62 | −1.3
